The results in this text go back to PubChem BioAssay AID190 (DTP/NCI, 2004).

Where “and” joins values, the source holds several entries; their conditions need not be identical. Identical values can stand only once. Inconclusive results and toxic doses are left out.

This experiment concerns AKR/Lw mice, AKR lymphoma ip, median survival T/C. Put plainly: NCI In Vivo Anticancer Drug Screen. Data for tumor model Lymphoma AKR (Transplanted) (intraperitoneal) in AKR/Lw mice. To be noted: endpoint: median survival time, higher = longer survival. As to the method:
The antitumor activity of compounds was measured in mice bearing transplantable tumors. Survival or tumor size were measured and the results are expressed as the measurement made in the treated group (T) divided by the measurement made in the vehicle treated control group (C). The tumor model used in this assay is Lymphoma AKR (Transplanted) (intraperitoneal) in AKR/Lw mice

The mark [1] stands for this setting: dose: 100.0 mg/kg/injection, schedule: Q01DX001 (ip), vehicle: Klucel (hydroxypropylcellulose) (HPC).
[2] abbreviates: dose: 200.0 mg/kg/injection, schedule: Q01DX001 (ip), vehicle: Klucel (hydroxypropylcellulose) (HPC).
[3] abbreviates: dose: 6.0 mg/kg/injection, schedule: Q01DX009 (ip), vehicle: saline.
[4] abbreviates: dose: 25.0 mg/kg/injection, schedule: Q04DX003 (ip), vehicle: saline.
[5] abbreviates: dose: 50.0 mg/kg/injection, schedule: Q04DX003 (ip), vehicle: saline.
The mark [6] stands for this setting: dose: 100.0 mg/kg/injection, schedule: Q01DX001 (ip), vehicle: saline.
[7] abbreviates: dose: 200.0 mg/kg/injection, schedule: Q01DX001 (ip), vehicle: saline.
Setting [8] is: dose: 25.0 mg/kg/injection, schedule: Q04DX003 (ip), vehicle: Klucel (hydroxypropylcellulose) (HPC).
[9] abbreviates: dose: 50.0 mg/kg/injection, schedule: Q01DX001 (ip), vehicle: Klucel (hydroxypropylcellulose) (HPC).
[10] abbreviates: dose: 50.0 mg/kg/injection, schedule: Q04DX003 (ip), vehicle: Klucel (hydroxypropylcellulose) (HPC).
[11] abbreviates: dose: 100.0 mg/kg/injection, schedule: Q04DX003 (ip), vehicle: Klucel (hydroxypropylcellulose) (HPC).
Setting [12] is: dose: 100.0 mg/kg/injection, schedule: Q04DX003 (ip), vehicle: saline.
Where [13] appears, read: dose: 400.0 mg/kg/injection, schedule: Q01DX001 (ip), vehicle: saline.
The mark [14] stands for this setting: dose: 400.0 mg/kg/injection, schedule: Q01DX001 (ip), vehicle: Klucel (hydroxypropylcellulose) (HPC).
[15] abbreviates: dose: 200.0 mg/kg/injection, schedule: Q04DX003 (ip), vehicle: Klucel (hydroxypropylcellulose) (HPC).

In the case of `CN(C)c1nc(N(C)C)nc(N(C)C)n1`, the T/C (dose: 80.0 mg/kg/injection, schedule: Q04DX003 (ip), vehicle: Klucel (hydroxypropylcellulose) (HPC)) is 111 % of control and the T/C (dose: 160.0 mg/kg/injection, schedule: Q04DX003 (ip), vehicle: Klucel (hydroxypropylcellulose) (HPC)) was 108 % of control.
As to `O=C(c1ccccc1)C1CCC1`, the T/C reads like this: under setting [1], 95 % of control; under setting [2], 95 % of control.
As for `N=c1ccn2c(n1)OC1C(O)C(CO)OC12` (stereo unspecified), the T/C under setting [3] is 105 % of control; the T/C (dose: 6.2 mg/kg/injection, schedule: Q01DX009 (ip), vehicle: saline) is 100 % of control; the T/C (dose: 12.0 mg/kg/injection, schedule: Q01DX009 (ip), vehicle: saline) was 105 % of control; the T/C (dose: 12.5 mg/kg/injection, schedule: Q01DX009 (ip), vehicle: saline) is 114 % of control and 120 % of control; the T/C under setting [4] is 100 % of control; the T/C (dose: 37.5 mg/kg/injection, schedule: Q01DX009 (ip), vehicle: saline) is 111 % of control. Also, the T/C reads like this: (dose: 50.0 mg/kg/injection, schedule: Q01DX001 (ip), vehicle: saline) 111 % of control; under setting [5], 102 % of control; under setting [6], 91 % of control and 117 % of control; under setting [7], 105 % of control and 111 % of control; (dose: 300.0 mg/kg/injection, schedule: Q01DX001 (ip), vehicle: saline) 123 % of control; (dose: 300.0 mg/kg/injection, schedule: Q01DX009 (ip), vehicle: saline) 153 % of control. The T/C by setting is: (dose: 500.0 mg/kg/injection, schedule: Q01DX009 (ip), vehicle: saline) 105 % of control; (dose: 600.0 mg/kg/injection, schedule: Q04DX003 (ip), vehicle: saline) 168 % of control.
As for `Cc1c2ccncc2c(C)c2c1[nH]c1ccccc12`, the T/C was 87 % of control (dose: 1.2 mg/kg/injection, schedule: Q01DX009 (ip), vehicle: Klucel (hydroxypropylcellulose) (HPC)); 165 % of control (dose: 1.25 mg/kg/injection, schedule: Q01DX009 (ip), vehicle: saline); 90 % of control and 118 % of control (dose: 1.5 mg/kg/injection, schedule: Q01DX009 (ip), vehicle: saline); 104 % of control and 121 % of control (dose: 3.0 mg/kg/injection, schedule: Q01DX009 (ip), vehicle: saline); 111 % of control (dose: 5.0 mg/kg/injection, schedule: Q01DX009 (ip), vehicle: saline); 116 % of control under setting [3]. For the same compound, the T/C is 88 % of control (dose: 7.5 mg/kg/injection, schedule: Q04DX003 (ip), vehicle: Klucel (hydroxypropylcellulose) (HPC)); 96 % of control (dose: 7.5 mg/kg/injection, schedule: Q04DX003 (ip), vehicle: saline); 152 % of control (dose: 10.0 mg/kg/injection, schedule: Q01DX009 (ip), vehicle: saline); 97 % of control (dose: 12.5 mg/kg/injection, schedule: Q01DX001 (ip), vehicle: Klucel (hydroxypropylcellulose) (HPC)); 124 % of control (dose: 12.5 mg/kg/injection, schedule: Q01DX001 (ip), vehicle: saline); 103 % of control (dose: 15.0 mg/kg/injection, schedule: Q01DX009 (ip), vehicle: Klucel (hydroxypropylcellulose) (HPC)). The T/C is, setting by setting: (dose: 15.0 mg/kg/injection, schedule: Q04DX003 (ip), vehicle: Klucel (hydroxypropylcellulose) (HPC)) 119 % of control; (dose: 15.0 mg/kg/injection, schedule: Q04DX003 (ip), vehicle: saline) 112 % of control; (dose: 18.75 mg/kg/injection, schedule: Q04DX003 (ip), vehicle: saline) 111 % of control and 116 % of control and 117 % of control; (dose: 18.8 mg/kg/injection, schedule: Q04DX003 (ip), vehicle: Klucel (hydroxypropylcellulose) (HPC)) 105 % of control; (dose: 20.0 mg/kg/injection, schedule: Q01DX009 (ip), vehicle: Klucel (hydroxypropylcellulose) (HPC)) 86 % of control; (dose: 20.0 mg/kg/injection, schedule: Q01DX009 (ip), vehicle: saline) 111 % of control. In addition, the T/C was 119 % of control (dose: 20.0 mg/kg/injection, schedule: Q04DX003 (ip), vehicle: Klucel (hydroxypropylcellulose) (HPC)); 123 % of control (dose: 25.0 mg/kg/injection, schedule: Q01DX001 (ip), vehicle: Klucel (hydroxypropylcellulose) (HPC)); 120 % of control (dose: 25.0 mg/kg/injection, schedule: Q01DX001 (ip), vehicle: saline); 263 % of control (dose: 25.0 mg/kg/injection, schedule: Q01DX005 (ip), vehicle: water); 153 % of control under setting [8]; 104 % of control and 111 % of control (dose: 30.0 mg/kg/injection, schedule: Q04DX003 (ip), vehicle: Klucel (hydroxypropylcellulose) (HPC)). Moreover, the T/C runs as follows: (dose: 35.0 mg/kg/injection, schedule: Q04DX003 (ip), vehicle: Klucel (hydroxypropylcellulose) (HPC)) 116 % of control; under setting [9], 118 % of control; (dose: 50.0 mg/kg/injection, schedule: Q01DX005 (ip), vehicle: water) 197 % of control; under setting [10], 153 % of control; (dose: 50.0 mg/kg/injection, schedule: Q04DX003 (ip), vehicle: water) 226 % of control; (dose: 75.0 mg/kg/injection, schedule: Q01DX001 (ip), vehicle: Klucel (hydroxypropylcellulose) (HPC)) 123 % of control. Also, the T/C runs as follows: under setting [1], 111 % of control and 121 % of control; under setting [11], 107 % of control; under setting [12], 100 % of control; (dose: 100.0 mg/kg/injection, schedule: Q04DX003 (ip), vehicle: water) 315 % of control; (dose: 150.0 mg/kg/injection, schedule: Q01DX001 (ip), vehicle: Klucel (hydroxypropylcellulose) (HPC)) 102 % of control; (dose: 150.0 mg/kg/injection, schedule: Q01DX001 (ip), vehicle: saline) 115 % of control.
Take `Cc1ccc(OS(=O)(=O)c2ccc([N+](=O)[O-])cc2)cc1`: the T/C (dose: 90.0 mg/kg/injection, schedule: Q01DX001 (ip), vehicle: Klucel (hydroxypropylcellulose) (HPC)) was 102 % of control; the T/C (dose: 135.0 mg/kg/injection, schedule: Q01DX001 (ip), vehicle: Klucel (hydroxypropylcellulose) (HPC)) was 102 % of control; the T/C under setting [2] was 100 % of control; the T/C (dose: 300.0 mg/kg/injection, schedule: Q01DX001 (ip), vehicle: Klucel (hydroxypropylcellulose) (HPC)) is 93 % of control.
Take `O=C(O)C12CCC(CC1)C2`: the T/C was 110 % of control under setting [4]; 102 % of control under setting [5]; 103 % of control under setting [6]; 100 % of control under setting [12]; 105 % of control under setting [7]; 105 % of control under setting [13].
Consider `Cc1ccc(N=C(c2ccc([N+](=O)[O-])cc2)c2ccc([N+](=O)[O-])cc2)cc1`, for which the T/C under setting [9] is 105 % of control; the T/C under setting [1] is 96 % of control; the T/C under setting [2] is 93 % of control and 100 % of control; the T/C under setting [14] was 100 % of control.
As for `Cc1cnc2c(=N)n(C(=O)C(F)(F)F)n(C)c2n1`, the T/C is, setting by setting: under setting [6], 89 % of control; under setting [7], 100 % of control; under setting [13], 92 % of control.
Regarding `C=CCN(CC=C)c1ccc(N(CC)CC)cc1`, the T/C reads like this: under setting [8], 100 % of control; under setting [10], 94 % of control; under setting [1], 96 % of control; under setting [11], 97 % of control; under setting [2], 92 % of control; under setting [15], 100 % of control.
In the case of `c1ccc2c(c1)OCCOCCOc1ccccc1OCCOCCO2`, the T/C is 107 % of control under setting [6], 123 % of control under setting [7] and 103 % of control under setting [13].
For `CCOC(=O)N(CC)c1ccccc1`, the T/C by setting is: under setting [1], 109 % of control; under setting [11], 113 % of control; under setting [2], 111 % of control; under setting [15], 94 % of control; under setting [14], 100 % of control; (dose: 400.0 mg/kg/injection, schedule: Q04DX003 (ip), vehicle: Klucel (hydroxypropylcellulose) (HPC)) 98 % of control.
